Reference: the supplement of paper PMC7840683
Counter-ions that a name gives are not always drawn. ± gives the standard deviation of the averaged measurements.

System: HepaRG
Test: LDH release cytotoxicity, % of total lysis control; higher = more cytotoxic
Conditions: 48 h
How it was run: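 On collagen I-coated 96-well plates, single-lot HepaRG cells were exposed for 48 h, in duplicate, to eight-point half-log series of test chemicals beginning at 100 µM. The exposure medium was serum-free induction medium with 0.5% DMSO, and total lysis wells got 0.1% Triton X. Resorufin fluorescence from the CytoTox-ONE reaction, read on a Tecan Safire, reported LDH in 50 µL of spent medium. Percent cytotoxicity came from normalization to on-plate vehicle and total lysis controls, averaged over the duplicates.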

SMILES	LDH release cytotoxicity (0.03162 µM)	LDH release cytotoxicity (0.1 µM)	LDH release cytotoxicity (0.3162278 µM)	LDH release cytotoxicity (1 µM)	LDH release cytotoxicity (3.16228 µM)	LDH release cytotoxicity (10 µM)	LDH release cytotoxicity (31.6228 µM)	LDH release cytotoxicity (100 µM)	also measured
CC1(C)CC(N=C=O)CC(C)(CN=C=O)C1 (configuration not stated) [Isophorone diisocyanate]	-2.14 ± 0.59%	-2.6 ± 0.31%	-2.25 ± 1.1%	-2.1 ± 0.37%	-1.35 ± 0.43%	-1.724 ± 0.015%	-2.21 ± 0.73%	0.405 ± 0.69%	–
O=C(N[C@H](c1ccccc1)[C@@H]1CN2CCC1CC2)c1c(Cl)ccc(C(F)(F)F)c1Cl	–	–	–	–	–	–	–	–	LDH release cytotoxicity (0.0292511 µM): -0.907 ± 0.47%; LDH release cytotoxicity (0.0925 µM): -0.886 ± 1.1%; LDH release cytotoxicity (0.292511 µM): -1.02 ± 1.4%; LDH release cytotoxicity (0.925 µM): -1.22 ± 0.28%; LDH release cytotoxicity (2.9251068 µM): -0.0305 ± 0.38%; LDH release cytotoxicity (9.25 µM): 1.38 ± 1.5%; LDH release cytotoxicity (29.251068 µM): 16.1 ± 3%; LDH release cytotoxicity (92.5 µM): 82.5 ± 6%
COc1cccc(C(O)C2CCN(CCc3ccc(F)cc3)CC2)c1OC (configuration not stated) [Volinanserin]	-0.377 ± 0.72%	-1.03 ± 1.4%	0.298 ± 1.8%	-0.566 ± 0.98%	-0.0858 ± 0.33%	-1.21 ± 0.87%	0.408 ± 1.3%	7.12 ± 0.34%	–
Cc1c(-c2cccnc2)c2ccccc2n1CCCCC(=O)O	-1.92 ± 0.15%	-0.948 ± 0.94%	-2.28 ± 1.1%	-1.9 ± 1.2%	-1.67 ± 3.2%	-1.54 ± 2.1%	-1.64 ± 0.83%	4.56 ± 1.8%	–
CC1(C)C(=O)NC(=O)N1CO [1-(Hydroxymethyl)-5,5-dimethylhydantoin]	-1.56 ± 1.1%	-1.1 ± 1.7%	-1.77 ± 0.95%	-1.77 ± 0.48%	-1.55 ± 0.76%	-1.08 ± 0.36%	-0.999 ± 0.29%	0.312 ± 0.47%	–
CCc1ccc(CCOc2ccc(CC3SC(=O)NC3=O)cc2)nc1 (configuration not stated) [Pioglitazone hydrochloride]	-0.765 ± 0.13%	-1.11 ± 0.35%	-1.39 ± 0.062%	-1.98 ± 0.67%	-2.26 ± 0.28%	-3.4 ± 0.42%	-3.94 ± 0.23%	-0.63 ± 0.3%	–
CC12CCC(=O)C=C1CCC1C2CCC2(C)C1CCC2(C)O (configuration not stated) [17-Methyltestosterone]	-1.79 ± 1.4%	-1.97 ± 0.62%	-1.97 ± 1.4%	-1.95 ± 2.3%	-2.67 ± 0.81%	-2.51 ± 1.4%	-2.52 ± 1.9%	-1.06 ± 1.5%	–
c1ccc(C(OC2CCCN(CCc3ccc4c(c3)OCO4)C2)c2ccccc2)cc1 (configuration not stated) [Zamifenacin]	-1.023 ± 0.0016%	-1.51 ± 0.059%	-1.31 ± 0.77%	-1.54 ± 0.46%	-1.68 ± 1.4%	-1.11 ± 0.43%	2 ± 0.19%	51.7 ± 1.1%	–
CCOc1cc(C(C)(C)C)ccc1C1COC(c2c(F)cccc2F)=N1 (configuration not stated) [Etoxazole]	–	–	–	–	–	–	–	–	LDH release cytotoxicity (0.020871 µM): -3.18 ± 0.75%; LDH release cytotoxicity (0.066 µM): -1.79 ± 0.038%; LDH release cytotoxicity (0.20871 µM): -2.56 ± 0.37%; LDH release cytotoxicity (0.66 µM): -3.05 ± 0.51%; LDH release cytotoxicity (2.0871 µM): -2.64 ± 0.86%; LDH release cytotoxicity (6.6 µM): -2.88 ± 0.43%; LDH release cytotoxicity (20.871 µM): -2.37 ± 0.075%; LDH release cytotoxicity (66 µM): 5.91 ± 0.27%
Cc1cnc(C2=NC(=O)C(C)(C(C)C)N2)c(C(=O)O)c1 (configuration not stated) [Imazapic]	-0.83 ± 0.63%	-2.27 ± 0.52%	-1.6 ± 0.34%	-1.46 ± 0.11%	-1.69 ± 0.21%	-0.919 ± 0.055%	-0.228 ± 0.13%	0.017 ± 1.6%	–
COc1cc(C=O)cc2c1C(COC(N)=O)C1(OC(C)=O)ON2CC2C1N2C(C)=O (configuration not stated)	-0.71 ± 0.46%	-0.654 ± 0.1%	1.14 ± 1.2%	17.5 ± 1.6%	62.9 ± 2.6%	67.8 ± 2.4%	73 ± 2.2%	73.3 ± 2.3%	–
CC(=O)SC1CC2=CC(=O)CCC2(C)C2CCC3(C)C(CCC34CCC(=O)O4)C12 (configuration not stated) [Spironolactone]	0.148 ± 1%	-0.279 ± 0.079%	-1.43 ± 0.44%	-1.93 ± 0.13%	-1.42 ± 0.35%	-1.46 ± 0.3%	-0.441 ± 0.098%	13.5 ± 1.6%	–
O=[N+]([O-])c1ccc(Cl)c(Cl)c1 [3,4-Dichloronitrobenzene]	-2.51 ± 0.31%	-2.5 ± 0.12%	-2.72 ± 0.62%	-3.32 ± 0.099%	-2.26 ± 0.096%	-2.3 ± 0.049%	-1.86 ± 0.037%	-0.0607 ± 0.49%	–
COc1ccc([N+](=O)[O-])cc1N [5-Nitro-o-anisidine]	0.0404 ± 0.33%	-1.94 ± 0.095%	-1.36 ± 0.15%	-1.28 ± 0.27%	-1.4 ± 0.22%	-1.25 ± 0.021%	0.0123 ± 0.15%	0.941 ± 0.76%	–
Cc1nc(N(C)C)nc(OC(=O)N(C)C)c1C [Pirimicarb]	-1.14 ± 0.57%	-1.49 ± 0.94%	-1.89 ± 0.61%	-1.97 ± 1.2%	-1.7 ± 0.12%	-1.84 ± 0.15%	-1.4 ± 0.24%	-0.895 ± 1.2%	–
COP(=O)(OC)OC(Br)C(Cl)(Cl)Br (configuration not stated) [Naled]	-2.18 ± 0.54%	-1.58 ± 0.07%	-1.53 ± 0.67%	-2.25 ± 0.69%	-0.95 ± 0.64%	-1.19 ± 0.38%	-0.943 ± 0.2%	-0.896 ± 0.77%	–
CC1=C(C)S(=O)(=O)CCS1(=O)=O [Dimethipin]	-2.35 ± 1%	-2.52 ± 0.16%	-2.59 ± 0.038%	-3.12 ± 0.25%	-2.6 ± 0.79%	-2.6 ± 0.88%	-2.51 ± 1.3%	-1.52 ± 0.84%	–
CCOCCOCCOCCO [2-[2-(2-Ethoxyethoxy)ethoxy]ethanol]	-2.06 ± 0.3%	-1.83 ± 0.41%	-2.87 ± 0.13%	-2.53 ± 0.46%	-2.5 ± 0.72%	-1.81 ± 0.26%	-1.33 ± 0.37%	0.397 ± 0.68%	–
CN(C)C1C(=O)C(C(N)=O)C(=O)C2(O)C(=O)C3C(=O)c4c(O)cccc4C(C)(O)C3C(O)C12 (configuration not stated) [Oxytetracycline hydrochloride]	-0.636 ± 0.43%	-0.707 ± 0.15%	-1.81 ± 0.59%	-1.93 ± 0.75%	-1.93 ± 0.7%	-1.21 ± 0.36%	-1.75 ± 1.1%	-1.47 ± 0.43%	–
